Molecules are shown by their SMILES.

The molecule `CN1C(=O)CC[C@]2(C)c3ccc(Sc4nccc5sccc45)cc3CC[C@@H]12` yielded a melting point of 196 to 197 °C.
`CCN1C(=O)Cc2cc(OCc3ccccc3C(=O)O)ccc21`: the melting point is 180 to 181 °C.
`Clc1nccc(-n2ccnc2)n1` gave a melting point of 128 °C.
With `CCCC1CCCCCc2c1oc(=O)c(C(c1ccccc1)C1CC1)c2O` (stereo not given), the melting point was in the range of 78 to 84 °C.
For the molecule `O=C(Nc1cccc2c(=O)cc(C(=O)O)oc12)c1ccc2c(c1)CC(CCCc1ccccc1)O2` (stereo not given), the melting point is 184 to 185 °C.
The molecule `Cc1cc(CNc2cccc3c2CN(C2CCC(=O)NC2=O)C3=O)oc1C` (stereo not given) came in with a melting point of 237 to 239 °C.
In turn, `CC(=O)Nc1cccc(C=C2C(=O)c3ccccc3OC2c2ccccc2)c1` (stereo not given) registered a melting point of 172 to 173 °C.
`CCOC1SCN(c2ccc(Cl)c(Cl)c2)C1=O` (stereo not given) came in with a melting point of 61 to 65 °C.
The value for `COC(=O)C1Oc2ccccc2C(C)c2cc(Cl)ccc2O1` (stereo not given) was 124 to 136 °C; that for `NC(N)=Nc1nc(-c2csc(CNC(=O)CO)n2)cs1` was 239 °C; that for `COC(=O)CC(C#Cc1cccc(-c2nnc(C)o2)c1)c1ccc(OC)c(OC2CCCC2)c1` (racemic) was 104 to 105 °C.
Molecule `CC=CC(C)=C1C(=O)OC(=O)C1c1cc(C)n(-c2ccc(C)cc2)c1C` (stereo not given) had a melting point of 129 °C.
`OC(=S)c1ccc2cccnc2c1O` displayed a melting point of 174 to 175 °C.
`COc1ccc2c(c1)c(CCO)c(C)n2Cc1ccc(Cl)cc1` registered a melting point of 113 to 115 °C.
Molecule `Cc1cc(C)cc(Sc2c(C(C)C)nc(CCOC(N)=O)n2C)c1` showed a melting point of 138 to 140 °C.
In turn, `CCOC(=O)C1Oc2ccc(Cl)cc2C(C)(c2ccccc2)O1` (stereo not given) registered a melting point of 92 °C.
The value for `c1ccc(NC2CCCN2Cc2c[nH]c3ccccc23)cc1` (stereo not given) was 150 to 151 °C; that for `Cc1ccc(S(=O)(=O)NCCCCOc2ccc(C#N)cc2)cc1` was 107 to 108 °C.
Molecule `CC(C)(C)OC(=O)N[C@@H](CC(N)=O)C(N)=O` displayed a melting point of 190 to 192 °C.
`COc1ccc(-c2c(C(=O)O)oc3cc(OCc4ccc(OCc5ccc6ccccc6n5)cc4)cc(O)c3c2=O)cc1` came in with a melting point of 195 to 196 °C.
With `CCc1c(OC)c(Cl)cc(C(N)=O)c1OC`, the melting point lay in the range of 83 to 84 °C.
The value for `CCOC(=O)CS(=O)(=O)Nc1ccccc1CC(=O)OC` was 86 to 88 °C; that for `Cn1ncc2[nH]c3ccc(Cc4cccc([N+](=O)[O-])c4)cc3c(=O)c21` was 279 to 283 °C.
In turn, `CC=C(NC(=O)C1CC1(CC)CC)C(=O)O` (stereo not given) yielded a melting point of 129 to 130 °C.
Molecule `CC(=O)NC(C=CCP(=O)(O)O)C(=O)O` (stereo not given) gave a melting point of 155 °C.
Molecule `COc1ccc(-c2sc3c(c2CN(C)Cc2ccccc2)c(=O)c(C(C)=O)cn3Cc2ccccc2F)cc1` came in with a melting point of 185 to 193 °C.
Turning to `O=c1ccc2c(-n3cnc(-c4ccccc4)c3)nccc2[nH]1`, the melting point was 263 to 265 °C.
As for `N#CCCNC(=O)c1cccc(-c2ccc3c(c2)N(Cc2cc(Cl)ccc2Cl)CC3)c1`, the melting point was 152 to 153 °C.
As for `CC(C)(C)c1cc(C(=O)NCc2cccc(N)c2)cc(C(C)(C)C)c1O`, the figure is 171 to 172 °C.
For the molecule `Cc1cccnc1COc1nn2c(-c3ccccc3)nnc2cc1C12CCC(CC1)C2`, the melting point was 214 to 216 °C.
Molecule `CC(=O)c1cc2sc(C)c(N(C)S(=O)(=O)c3cccs3)c2[nH]1` showed a melting point of 220 °C.
The molecule `CCCOC(=O)c1c(C)nc2cc(OC)c(OC)cc2c1-c1ccc(OC)c(OC)c1` returned a melting point of 153 to 155 °C.
In turn, `O=C1COCC2=C1C(c1ccc(F)c(I)c1)C1=C(CCS1(=O)=O)N2` (stereo not given) had a melting point of more than 260 °C.
`CC(C)(C)C(NC(=O)c1ccc(Cl)cc1)NC(=NC#N)Nc1cc(F)cc(F)c1` (stereo not given) returned a melting point of 196 to 198 °C.
In the case of `COc1ccc(-c2ccc3c(c2)C=C(C(=O)Nc2ccc(CN(C)C4CCC5(CC4)OCCO5)cc2)CCS3)cc1`, the melting point was 198 to 201 °C.
Molecule `CC12C=CC(=O)CC1CCC1C2CCC2(C)C(C(=O)NC3(C#N)CCCC3)CCC12` (stereo not given) returned a melting point of 262 to 269 °C.
`COc1cc(N2CCC(N3CCCOCC3)CC2)ccc1Nc1ncc2ccc(-c3ccccc3OC)n2n1`: the melting point was in the range of 75 to 82 °C.
`Cc1cc(Nc2ccnc(Nc3ccc(S(=O)(=O)N4CCC(C(O)c5ccncc5)CC4)cc3)n2)ccc1F` (stereo not given): the melting point is 162 °C.
Consider `OCC1(CO)CC2C=CC1C2` (stereo not given), for which the melting point worked out at 110 °C.
The value for `CCCCCCCCCCCCCCCC(=O)OC[C@H]1OCC(=NO)[C@@H](O)[C@@H]1O` was 97 to 104 °C; that for `Cc1ccccc1NC(=O)CN1CC2CCC(C1)N2S(=O)(=O)c1ccccc1Cl` was 170 to 171 °C; that for `COc1cc([N+](=O)[O-])c2nccc(C)c2c1Oc1ccc(Cl)cc1Cl` was 166 to 168 °C.
Molecule `CN(C(=O)c1ccc(C(=O)C(C)(C)C)cc1)C(=O)c1ccc(C(=O)C(C)(C)C)cc1` registered a melting point of 122 °C.
As for `O=C(Oc1ccc(F)cc1)Oc1ccc(F)cc1`, the figure is 122 to 123 °C.
As to `CCc1cccc(CC)c1NC(=O)c1c2n(c(C)c(Br)c1=O)CCCC2`, the melting point was in the range of 208 to 210 °C.
As for `Cc1cc(C)n(-c2nc(Nc3cccc4cccnc34)c3ccccc3n2)n1`, the figure is 184 to 185 °C; as for `COc1ccccc1-c1ccc2cnc(Nc3cc4c(cc3F)CCC(=O)N4)nn12`, 300 to 305 °C.
The molecule `Cc1cccc(C)c1N1CC(C)N(c2c(C)cccc2C)C1=NC(=O)C(F)(F)F` (stereo not given) displayed a melting point of 232 to 235 °C.
`CC1N(C)c2cc3[nH]c(=O)cc(C(F)(F)F)c3cc2C1(C)C` (stereo not given) had a melting point of 248 to 249 °C.
Consider `CCOC(=O)CCc1ccc(CCNS(=O)(=O)CCc2ccc(Cl)cc2)cc1`, for which the melting point is 77 to 78 °C.
As for `O=C(O)c1c[nH]c2cc(C3CC3)nn2c1=O`, the figure is 275 to 278 °C; as for `CSc1cccc2nc(SCCN3CCN(CC(=O)Nc4c(C(C)C)cccc4C(C)C)CC3)oc12`, 120 to 121 °C; as for `Cc1sc(Cl)cc1C1(c2cccc(-c3cncnc3)c2)N=C(N)N(C)C1=O` (stereo not given), 141 to 149 °C.
`O=C(O)Cc1c(C(=O)c2cc(Cl)ccn2)[nH]c2ccc(Cl)cc12` displayed a melting point of 243 to 244 °C.
As to `COC(=O)C(C(=O)OC)C(C#Cc1ccccc1)c1ccc(OC)c(OC2CCCC2)c1` (racemic), the melting point was in the range of 66 to 67 °C.
`COC(=O)CCc1nc(C=O)ccc1O`: the melting point lay in the range of 92 to 95 °C.
With `Cc1c(Cl)cccc1NS(=O)(=O)c1cc(S(=O)(=O)Nc2cccc(Cl)c2C)c2ccccc2c1O`, the melting point fell in the range of 245 to 247 °C.
On to `C=C(C)COc1ccc(C(=O)C=Cc2c[nH]c3ccccc23)c(O)c1`, for which the melting point was 29 to 30 °C.
As for `CC(C)(C)C(=O)Oc1cc(C(=O)OCC[Si](C)(C)C)cc2oc(-c3ccccc3)cc(=O)c12`, the figure is 205 °C; as for `CCOP(=O)(OCC)c1nc(N2CCCC2)nc(N2CCCC2)n1`, 65 to 69 °C.
As for `O=[N+]([O-])c1ccc2c(c1)OP(=O)(N(CCCl)CCCl)NC2` (stereo not given), the figure is 123 to 126 °C; as for `NC(=O)C1CCc2cc(S(=O)(=O)Cl)ccc2O1` (stereo not given), 147 to 148 °C.
In the case of `COc1cc(Oc2cccc3c2NC(=O)C3SC)cc(OC)c1OC` (stereo not given), the melting point lay in the range of 155 to 158 °C.
The molecule `Clc1nc(SCc2ccccc2)ncc1Br` showed a melting point of 56 to 57 °C.
For the molecule `CC1=CC(=O)C(C(C)C)=C(CCNC(=O)C(F)(F)F)C1=O`, the melting point lay within 94 to 95 °C.
`COc1cc(C)cc2c(Br)ccc(OC(C)C)c12` yielded a melting point of 78 °C.
Turning to `CC(=O)C1=CCC2C3CCC4CC(O)CCC4(C)C3=CCC12C` (stereo not given), the melting point is 188 to 190 °C.
Regarding `COC(=O)NC(=O)c1ccc(C=NO)cc1C`, the melting point is 141 to 143 °C.
The value for `Cn1c2c(c(=O)[nH]c1=O)CCC2` was 250 to 251 °C.
Molecule `O=C1N(Cc2ccccn2)c2ccccc2C12COc1ccc3c(c12)OCCO3` (stereo not given) gave a melting point of 132 to 134 °C.
The value for `O=C(O)[C@H](Cc1ccccc1)NC(=O)[C@@H]1CCCN1C(=O)c1ccccc1` was 200 to 202 °C; that for `c1ccc(OCc2ccsc2)cc1` was 49 to 50 °C.
Regarding `Cc1ccc(-c2ccc3cc(C(=O)Nc4ccc(CN(C)C5CCOCC5)cc4)[nH]c3c2)cc1`, the melting point was in the range of 246 to 250 °C.
In turn, `COc1cc(OC)nc(NS(=O)(=O)c2ccccc2N(C)S(C)(=O)=O)n1` gave a melting point of 228 to 230 °C.
On to `Cc1ccc2c(NCc3ccccc3)c3c(nc2c1)CCCC3O` (stereo not given), for which the melting point was in the range of 148 to 153 °C.
`COC(=O)C1CC(Oc2ccc([N+](=O)[O-])cc2)CN1C(=O)C1(C)CCc2c(C)c(O)c(C)c(C)c2O1` (stereo not given) yielded a melting point of 103 to 105 °C.
On to `CCCCn1c(=O)c2c(ncn2S(=O)(=O)c2cc(C)c(Cl)cc2C)n(CCCC)c1=O`, for which the melting point is 138 to 140 °C.
On to `O=C(CCC(=O)N1CCC[C@H]1C(=O)O)c1ccc(Cl)cc1`, for which the melting point lay in the range of 137 to 138 °C.
`CCOC(=O)CCCCOc1ccc2c(c1)CC1CC(=O)NC1=N2` (stereo not given) came in with a melting point of 180 °C.
`Cc1ccc(S(=O)(=O)CNC=O)cc1` came in with a melting point of 103 to 107 °C.
`Oc1cc2ccsc2c(Cl)c1Cl` had a melting point of 97 to 98 °C.
The molecule `N#Cc1ccc(F)c(C2=Nc3ccc(-c4ccccc4F)cc3NC(=O)C2)c1` returned a melting point of 239 °C.
Molecule `Cc1oc(-c2ccccc2)nc1CCSc1ccc(OC(C)(C)C(=O)O)cc1` came in with a melting point of 104 to 106 °C.
The value for `Clc1ccc2c(Cl)c3c(nc2c1)CCCC3` was 85 to 87 °C.
`COc1ccc(OC)c2c1CC[C@](O)(C(=O)O)C2` returned a melting point of 91 to 93 °C.
Molecule `ClCc1cnc2ccc(Cl)cc2c1Cl` showed a melting point of 102 to 105 °C.
With `CC(C)N(O)C(=O)Nc1ccc(S(C)=O)cc1` (stereo not given), the melting point is 136 °C.
The value for `CN(C)CCn1cnc2cnc3ccccc3c21` was more than 250 °C; that for `OCCOc1cccc2c1OCO2` was 56 to 57 °C.
Consider `CCCCc1nc(=O)n2nc(-c3ccco3)cc2[nH]1`, for which the melting point amounted to 190 °C.

As usually defined, the melting point is the temperature of the solid-liquid transition.

For the origin of these results see a melting point compilation (Tetko et al.; mined from patent text by program, amines drawn as free bases though some values may be those of a salt).
